Source: patent US20110311621A1, “PHARMACEUTICAL COMPOSITIONS AND METHODS OF DELVERY” (priority 2010, published 2011)

Legend:
conscious rats = experiment: Effect of CCK-8 on food intake: volume of D-glucose solution consumed by conscious rats; assay type: in vivo, Sprague Dawley rats; details: 0.165 mg CCK-8 per rat; 30 min post administration
Description: Three of the above formulations (R, S and T) were prepared as follows for use in testing biological activity: Formulation R at levels of 0.165, 0.055, 0.003 mg CCK-8 per rat; Formulation S at 0.09 mg CCK-8 per rat; and Formulation T at 0.09 mg CCK-8 per rat. Thus Formulation R with 0.055 CCK-8 (% w/w) was used at 0.3 and 0.1 ml per rat to give a dose of 0.165 and 0.055 (mg per rat); Formulation R with 0.001 CCK-8 (% w/w) was used at 0.3 ml per rat to give a dose of 0.003 mg per rat; and Formulations S and T with 0.03 CCK-8 (% w/w) were both used at 0.3 ml to give a dose of 0.09 mg per rat.
The effect of oral administration of CCK8 on food intake was achieved by measuring the volume of D-glucose consumed by conscious rats (essentially using the method described by Chun-Min et al., Am. Physio. Soc. 296:R43-R50, 2009). The feeding response of conscious rats to exogenous oral CCK-8 was analyzed by measuring the volume of D-glucose solution consumed. Sprague Dawley rats cannulated at the jejunum (as described in Example 2) were fasted for 18 h. The fasted animals were administrated with a dose range of exogenous CCK8 using three formulations. Three groups served as controls: Rats administered with formulation alone; rats administered with CCK-8 in saline (0.165 mg
The volume of glucose solution consumption was measured at 30 min, 60 min and 90 min post administration. […]

[1] = Aliskiren bioavailability after jejunal administration to conscious rats, compared with oral solution by gavage; details: AUC relative to aliskiren oral solution (gavage)
Description: (i) Jejunal Administration to Conscious rats
To test the bioavailability of formulations in the jejunum of conscious rats, a specialized rat model was established in which two different cannulas are surgically implanted in male Sprague-Dowley rats (other rats may also be used): • 1—jejunal cannula to bypass the stomach and enable direct formulation administration to the jejunum; and • 2—jugular vein cannula to determine the systematic levels of the administered dextran following jejunal administration.
Rats were allowed to recover for 4 days before the study and were deprived of food for 18 hours before the start of the study. […]
Blood samples were drawn from the jugular vein at an appropriate series of times post jejunal administration and post IV administration, (or post SC administration), plasma was prepared and levels of active ingredient were determined in each sample. The average absolute Bioavailability (aBA) achieved after jejunal administration of the formulation is calculated as described below.
Exposure values, AUC (0-T), are calculated from the area under the serum concentration versus time curve (AUC) and are determined for jejunal and intravenous administration (or SC administration). […]

| Structure (SMILES) | Average volume of glucose solution consumed (± standard error) (conscious rats) [mL] | Median volume of glucose solution consumed (conscious rats) [mL] | Fold from gavage [1] |
| --- | --- | --- | --- |
| CSCC[C@H](NC(=O)[C@H](Cc1ccc(OS(=O)(=O)O)cc1)NC(=O)[C@@H](N)CC(=O)O)C(=O)NCC(=O)N[C@@H](Cc1c[nH]c2ccccc12)C(=O)N[C@@H](CCSC)C(=O)N[C@@H](CC(=O)O)C(=O)N[C@@H](Cc1ccccc1)C(N)=O [CCK8 in saline, Sincalide] | 6.80 ± 0.99 | 7.90 | – |
| COCCCOc1cc(C[C@@H](C[C@H](N)[C@@H](O)C[C@H](C(=O)NCC(C)(C)C(N)=O)C(C)C)C(C)C)ccc1OC [Aliskiren oral solution, aliskiren] | – | – | 1 |
